# Results from patent US20210315960A1, “COMPOSITIONS OF AZADIRACHTA INDICA AND METHODS OF TREATING CANCER” (Board of Regents, The University of Texas System, priority 2018, published 2021).
# Tested on: SCC4, HSC3, Cal27 OSCC cell lines
# Test: MTT assay, human OSCC cell lines
# Assay type: cell-based
# Settings: 8 h and 24 h treatments, read-out: IC50 (cell growth)
# Description: SCC4 and Cal27 oral cancer cells are obtained from ATCC and maintained in DMEM supplemented with 10% fetal bovine serum and 1% penicillin/streptomycin at 37° C. with 5% CO2. For the SCC4 cells, hydrocortisone was provided at 400 ng/ml in the completed media. […] Doses to be tested will bracket the IC50s for each cell line. Control cells will receive DMSO. […] Subsequently, 10 μl of 12 mM MTT (Life Technologies; Carlsbad, Calif.) solution was added to each well, incubated for 4 hr at 37° C., and neutralized with DMSO. Absorbance was measured at 540 nm and percent viability was calculated.
compound,measurement,value
Cc1ccc(-c2cc(C(F)(F)F)nn2-c2ccc(S(N)(=O)=O)cc2)cc1 [Celecoxib],IC50,75 µM
